# pIC50: −log10 of the molar value.
# Target: T1, human JAK2 (Homo sapiens, UniProt O60674)
# T1 construct: JAK2 (a.a. 828-1132); His tag (N); made in house; host or cells: insect cells (baculovirus)
# Assay: In vitro JAK kinase assay (HTRF, phosphorylation of biotinylated peptide)
# Type: biochemical
# Conditions: catalytic domain a.a. 828-1132, 30 μM ATP, 500 nM peptide, room temperature 1 hr; read-out: JAK-2 IC50
# Procedure: Compounds herein were tested for inhibitory activity of JAK targets according to the following in vitro assay described in Park et al, Analytical Biochemistry 1999, 269, 94-104. The catalytic domains of human JAK1 (a.a. 837-1142), JAK2 (a.a. 828-1132) and JAK3 (a.a. 781-1124) with an N-terminal His tag were expressed using baculovirus in insect cells and purified. The catalytic activity of JAK1, JAK2 or JAK3 was assayed by measuring the phosphorylation of a biotinylated peptide. The phosphorylated peptide was detected by homogenous time resolved fluorescence (HTRF). IC50s of compounds were measured for each kinase in the reactions that contain the enzyme, ATP and 500 nM peptide in 50 mM Tris (pH 7.8) buffer with 100 mM NaCl, 5 mM DTT, and 0.1 mg/mL (0.01%) BSA. The ATP concentration in the reactions was 90 μM for JAK1, 30 μM for Jak2 and 3 μM for JAK3. Reactions were carried out at room temperature for 1 hr and then stopped with 20 μL 45 mM EDTA, 300 nM SA-APC, 6 nM Eu-Py20 in assay buffer (Perkin Elmer, Boston, Mass.). Binding to the Europium labeled antibody took place for 40 minutes and HTRF signal was measured on a Fusion plate reader (Perkin Elmer, Boston, Mass.). Certain of the above compounds were tested according to this assay.
# T1 sequence (O60674 828-1132): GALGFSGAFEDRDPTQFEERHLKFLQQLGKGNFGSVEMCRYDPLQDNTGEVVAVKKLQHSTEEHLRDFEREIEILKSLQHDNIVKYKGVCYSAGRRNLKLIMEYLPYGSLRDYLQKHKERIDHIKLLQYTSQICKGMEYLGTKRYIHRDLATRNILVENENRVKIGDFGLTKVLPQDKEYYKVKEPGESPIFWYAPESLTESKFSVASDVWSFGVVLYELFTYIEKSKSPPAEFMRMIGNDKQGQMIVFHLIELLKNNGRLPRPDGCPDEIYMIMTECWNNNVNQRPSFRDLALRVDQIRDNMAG
row,pIC50,SMILES
1,> 7.00,"COc1cnc(Nc2cccc(C(=O)N3CCC(C#N)CC3)c2)nc1-c1cnn(C(CC#N)C2CC2)c1 (racemic) [Example 331, 1-[3-({4-[1-(2-cyano-1-cyclopropylethyl)-1H-pyrazol-4-yl]-5-methoxypyrimidin-2-yl}amino)benzoyl]piperidine-4-carbonitrile]"
2,> 7.00,"CN(C)C(=O)c1ccc(Nc2nccc(-c3cnn(C(CC#N)CC4CCN(C(=O)c5ccc(F)cc5F)CC4)c3)n2)cc1 (racemic) [Example 59, 4-(4-(1-(1-cyano-3-(1-(2,4-difluorobenzoyl)piperidin-4-yl)propan-2-yl)-1H-pyrazol-4-yl)pyrimidin-2-ylamino)-N,N-dimethylbenzamide]"
3,> 7.00,"N#CCC(C1CCCC1)n1cc(-c2ccnc(Nc3cccc(C(=O)N4CCC(O)(c5ccccc5)CC4)c3)n2)cn1 (racemic) [Example 150, 3-cyclopentyl-3-(4-(2-(3-(4-hydroxy-4-phenylpiperidine-1-carbonyl)phenylamino)pyrimidin-4-yl)-1H-pyrazol-1-yl)propanenitrile]"
4,> 7.00,"CN(C)C(=O)c1ccc(Nc2nccc(-c3cnn(C(CC#N)CC4CCN(S(=O)(=O)c5ccn(C)n5)CC4)c3)n2)cc1 (racemic) [Example 58, 4-(4-(1-(1-cyano-3-(1-(1-methyl-1H-pyrazol-3-ylsulfonyl)piperidin-4-yl)propan-2-yl)-1H-pyrazol-4-yl)pyrimidin-2-ylamino)-N,N-dimethylbenzamide]"
5,> 7.00,"COc1ccc(Nc2nccc(-c3cnn(C4(CC#N)CCN(C(=O)c5ccno5)CC4)c3)n2)cn1 (racemic) [Example 16, 2-(1-(isoxazole-5-carbonyl)-4-(4-(2-(6-methoxypyridin-3-ylamino)pyrimidin-4-yl)-1H-pyrazol-1-yl)piperidin-4-yl)acetonitrile]"
6,> 7.00,"N#CCC(C1CC1)n1cc(-c2ccnc(Nc3cccc(-c4cnco4)c3)n2)cn1 (racemic) [Example 181, 3-cyclopropyl-3-(4-(2-(3-(oxazol-5-yl)phenylamino)pyrimidin-4-yl)-1H-pyrazol-1-yl)propanenitrile]"
7,> 7.00,"Cc1cnc(Nc2ccc(C(=O)N(C)C)cc2)nc1-c1cnn(C(CC#N)CC2CCN(S(=O)(=O)c3ccn(C)n3)CC2)c1 (racemic) [Example 67, 4-(4-(1-(1-cyano-3-(1-(1-methyl-1H-pyrazol-3-ylsulfonyl)piperidin-4-yl)propan-2-yl)-1H-pyrazol-4-yl)-5-methylpyrimidin-2-ylamino)-N,N-dimethylbenzamide]"
8,> 7.00,"N#CCC(C1CCCC1)n1cc(-c2ccnc(Nc3ccc(C(=O)NC4CCN(c5ccccn5)C4)cc3)n2)cn1 (mixture of isomers) [Example 232, 4-(4-(1-(2-cyano-1-cyclopentylethyl)-1H-pyrazol-4-yl)pyrimidin-2-ylamino)-N-(1-(pyridin-2-yl)pyrrolidin-3-yl)benzamide]"
9,> 7.00,"COc1cnc(Nc2cccc(C(=O)NC3CCOCC3)c2)nc1-c1cnn(C(CC#N)C2CC2)c1 (racemic) [Example 323, 3-({4-[1-(2-cyano-1-cyclopropylethyl)-1H-pyrazol-4-yl]-5-methoxypyrimidin-2-yl}amino)-N-(tetrahydro-2H-pyran-4-yl)benzamide]"
10,> 7.00,"N#CCC1(n2cc(-c3ccnc(Nc4ccc(N5CCOCC5=O)cc4)n3)cn2)CC(C#N)C1 (single isomer, unassigned) [Example 338, 3-(cyanomethyl)-3-[4-(2-{[4-(3-oxomorpholin-4-yl)phenyl]amino}pyrimidin-4-yl)-1H-pyrazol-1-yl]cyclobutanecarbonitrile]"
11,> 7.00,"N#CCC(C1CCCC1)n1cc(-c2ccnc(Nc3cccc(C(=O)N4CCN(c5ccccc5)CC4)c3)n2)cn1 (racemic) [Example 168, 3-cyclopentyl-3-(4-(2-(3-(4-phenylpiperazine-1-carbonyl)phenylamino)pyrimidin-4-yl)-1H-pyrazol-1-yl)propanenitrile]"
12,> 7.00,"N#CCC(CC1CCN(C(=O)c2ccc(F)cc2F)CC1)n1cc(-c2ccnc(Nc3ccccc3)n2)cn1 (racemic) [Example 4, 4-(1-(2,4-difluorobenzoyl)piperidin-4-yl)-3-(4-(2-(phenylamino)pyrimidin-4-yl)-1H-pyrazol-1-yl)butanenitrile]"
13,> 7.00,"N#CCC1(n2cc(-c3ccnc(Nc4ccc(C(=O)N5CCOCC5)cc4)n3)cn2)CC(C#N)C1 (single isomer, unassigned) [Example 287, 3-(cyanomethyl)-3-(4-(2-(4-(morpholine-4-carbonyl)phenylamino)pyrimidin-4-yl)-1H-pyrazol-1-yl)cyclobutanecarbonitrile]"
14,> 7.00,"N#CCC(C1CCCC1)n1cc(-c2ccnc(Nc3ccc(C(=O)N4CCNC(=O)C4)cc3)n2)cn1 (racemic) [Example 123, 3-cyclopentyl-3-(4-(2-(4-(3-oxopiperazine-1-carbonyl)phenylamino)pyrimidin-4-yl)-1H-pyrazol-1-yl)propanenitrile]"
15,> 7.00,"COCC(C)NC(=O)c1cccc(Nc2nccc(-c3cnn(C(CC#N)C4CCCC4)c3)n2)c1 (mixture of isomers) [Example 113, 3-(4-(1-(2-cyano-1-cyclopentylethyl)-1H-pyrazol-4-yl)pyrimidin-2-ylamino)-N-(1-methoxypropan-2-yl)benzamide]"
16,> 7.00,"N#CCC(C1CCCC1)n1cc(-c2ccnc(Nc3ccc(C(=O)N4CC[C@@H](O)C4)cc3)n2)cn1 (mixture of isomers) [Example 127, 3-cyclopentyl-3-(4-(2-(4-((R)-3-hydroxypyrrolidine-1-carbonyl)phenylamino)pyrimidin-4-yl)-1H-pyrazol-1-yl)propanenitrile]"
17,> 7.00,"C[C@@H]1CN(S(=O)(=O)Nc2ccc(Nc3nccc(-c4cnn(C(CC#N)C5CCCC5)c4)n3)cc2)C[C@H](C)O1 (mixture of isomers) [Example 182, N-(4-(4-(1-(2-cyano-1-cyclopentylethyl)-1H-pyrazol-4-yl)pyrimidin-2-ylamino)phenyl)-(cis)-2,6-dimethylmorpholine-4-sulfonamide]"
18,> 7.00,"Cc1cnc(Nc2ccc(N3CCOCC3)cc2)nc1-c1cnn(C(CC#N)CC2CCN(S(=O)(=O)c3ccn(C)n3)CC2)c1 (racemic) [Example 61, 4-(1-(1-methyl-1H-pyrazol-3-ylsulfonyl)piperidin-4-yl)-3-(4-(5-methyl-2-(4-morpholinophenylamino)pyrimidin-4-yl)-1H-pyrazol-1-yl)butanenitrile]"
19,> 7.00,"N#CCC(C1CCCC1)n1cc(-c2ccnc(Nc3ccc(C(=O)N4CCOCC4)cc3)n2)cn1 (racemic) [Example 213, 3-cyclopentyl-3-(4-(2-(4-(morpholine-4-carbonyl)phenylamino)pyrimidin-4-yl)-1H-pyrazol-1-yl)propanenitrile]"
20,> 7.00,"CS(=O)(=O)Nc1cccc(Nc2nccc(-c3cnn(C(CC#N)C4CCCC4)c3)n2)c1 (racemic) [Example 115, N-(3-(4-(1-(2-cyano-1-cyclopentylethyl)-1H-pyrazol-4-yl)pyrimidin-2-ylamino)phenyl)methanesulfonamide]"
21,> 7.00,"CN1CCN(C(=O)c2cccc(Nc3nccc(-c4cnn(C(CC#N)C5CCCC5)c4)n3)c2)CC1 (racemic) [Example 137, 3-cyclopentyl-3-(4-(2-(3-(4-methylpiperazine-1-carbonyl)phenylamino)pyrimidin-4-yl)-1H-pyrazol-1-yl)propanenitrile]"
22,> 7.00,"Cc1cnc(Nc2ccc(C(=O)O)cc2)nc1-c1cnn(C(CC#N)C2CCCC2)c1 (racemic) [Example 81, 4-(4-(1-(2-cyano-1-cyclopentylethyl)-1H-pyrazol-4-yl)-5-methylpyrimidin-2-ylamino)benzoic acid]"
23,> 7.00,"COc1cnc(Nc2ccc(NC(C)=O)cc2)nc1-c1cnn(C(CC#N)C2CCCC2)c1 (racemic) [Example 103, N-(4-(4-(1-(2-cyano-1-cyclopentylethyl)-1H-pyrazol-4-yl)-5-methoxypyrimidin-2-ylamino)phenyl)acetamide]"
24,> 7.00,"CCS(=O)(=O)N1CCC(CC(CC#N)n2cc(-c3nc(Nc4ccc(C(=O)N(C)C)cc4)ncc3C)cn2)CC1 (racemic) [Example 52, 4-(4-(1-(1-cyano-3-(1-(ethylsulfonyl)piperidin-4-yl)propan-2-yl)-1H-pyrazol-4-yl)-5-methylpyrimidin-2-ylamino)-N,N-dimethylbenzamide]"
25,> 7.00,"COC1CCN(C(=O)c2ccc(Nc3nccc(-c4cnn(C(CC#N)C5CCCC5)c4)n3)cc2)CC1 (racemic) [Example 221, 3-cyclopentyl-3-(4-(2-(4-(4-methoxypiperidine-1-carbonyl)phenylamino)pyrimidin-4-yl)-1H-pyrazol-1-yl)propanenitrile]"
26,> 7.00,"N#CCC(C1CCCC1)n1cc(-c2ccnc(Nc3ccc(NC(=O)CN4CCOCC4)cc3)n2)cn1 (racemic) [Example 207, N-(4-(4-(1-(2-cyano-1-cyclopentylethyl)-1H-pyrazol-4-yl)pyrimidin-2-ylamino)phenyl)-2-morpholinoacetamide]"
